{"source": "patent US10435447B2", "about": "“Bacteriocidal peptides and uses thereof” (priority 2015, dated 2019)", "key": {"[1]": {"test_system": "E. faecalis"}, "[2]": {"test_system": "19 selected strains of Gram-negative bacteria", "assay_type": "cell-based", "conditions": "for antibacterial / bacteriocidal activity (in words): 19 Gram-negative strains; for number of the 19 Gram-negative strains inhibited: peptide at 16 μg/ml (~4 μM)", "from_the_text": "FIG. 3. […] FIG. 3A. […] FIG. 3B. […] FIG. 3C. […] FIG. 3D. […] FIG. 3F."}, "[3]": {"test_system": "S. aureus"}, "[4]": {"test_system": "human red blood cells (hRBCs)", "conditions": "human RBCs"}, "[5]": {"test_system": "Toll-like receptor 3 (TLR3)", "assay": "IL-6 ELISA, TLR3 signaling with poly(I:C) in BEAS-2B cells", "assay_type": "cell-based, human", "description": "Innate immune signaling by endogenous Toll-like receptor 3 (TLR3) in BEAS-2B cells in response to double-stranded RNA and various bacteriocidal peptides. IL-6 cytokine produced in response to signal transduction by TLR3 and the double-stranded RNA mimic, poly(I:C), was quantified using ELISA. Where present, the peptides were added to the media of BEAS-2B cells to a final concentration of 2 μM. […] All assays were performed in three independent samples and the mean and one standard error is shown above the bars."}}, "note": "“Also recorded” adds a separate entry of the source. Read-outs that look alike come from different tables or passages of the source. Residues, ends and D or L forms follow the SMILES beside them. No end group written: not given here."}
{"compound": "CC[C@H](C)[C@H](NC(=O)[C@@H](NC(=O)[C@@H]1CCCN1C(=O)[C@H](CO)NC(=O)[C@H](CC(C)C)NC(=O)[C@H](CCCCN)NC(=O)[C@H](CCCCN)NC(=O)[C@H](Cc1ccccc1)NC(=O)[C@H](CC(C)C)NC(=O)[C@H](CCCCN)NC(=O)[C@H](CCCCN)NC(=O)[C@H](Cc1ccccc1)NC(=O)[C@H](CCCCN)NC(=O)[C@H](CCCCN)NC(=O)[C@H](CCCNC(=N)N)NC(=O)[C@H](Cc1ccccc1)NC(=O)[C@H](CCCNC(=N)N)NC(=O)[C@H](CCCCN)NC(=O)[C@H](Cc1ccccc1)NC(=O)[C@H](CCCNC(=N)N)NC(=O)CN)C(C)C)C(=O)N1CCC[C@H]1C(=O)N[C@@H](CC(C)C)C(=O)N[C@@H](CC(C)C)C(=O)N[C@@H](Cc1c[nH]cn1)C(=O)N[C@@H](CC(C)C)C(=O)NCC(=O)O", "note": "[BMAP-27] (H-GRFKRFRKKFKKLFKKLSPVIPLLHLG-OH; N-terminus and C-terminus assumed)", "values": [{"measurement": "MIC", "setting": "[1]", "value": ">32", "unit": "µg/mL"}, {"measurement": "antibacterial / bacteriocidal activity (in words)", "setting": "[2]", "value": "most potent antibacterial activities; also recorded: most effective"}]}
{"compound": "CC[C@H](C)[C@H](NC(=O)[C@H](CCCCN)NC(=O)[C@H](CCCNC(=N)N)NC(=O)CNC(=O)[C@H](CC(C)C)NC(=O)[C@H](CCCCN)NC(=O)[C@H](CCC(N)=O)NC(=O)[C@@H](NC(=O)[C@H](CCCNC(=N)N)NC(=O)[C@H](CCCCN)NC(=O)[C@H](CCCNC(=N)N)NC(=O)[C@@H](NC(=O)[C@H](CCCCN)NC(=O)[C@H](CCCNC(=N)N)NC(=O)[C@H](Cc1ccccc1)NC(=O)[C@H](CCCCN)NC(=O)[C@H](CCCCN)NC(=O)[C@H](CCCNC(=N)N)NC(=O)[C@H](CC(C)C)NC(=O)CN)[C@@H](C)O)[C@@H](C)CC)C(=O)NCC(=O)N[C@@H](CCCCN)C(=O)N[C@H](C(=O)NCC(=O)N[C@@H](CCCNC(=N)N)C(=O)N[C@@H](CCCCN)C(=O)N[C@H](C(=O)N[C@@H](Cc1c[nH]c2ccccc12)C(=O)N[C@@H](CCCCN)C(=O)N[C@@H](C)C(=O)N[C@@H](Cc1c[nH]c2ccccc12)C(=O)N[C@@H](CCCNC(=N)N)C(=O)N[C@@H](CCC(=O)O)C(=O)N[C@@H](Cc1ccc(O)cc1)C(=O)O)C(C)C)[C@@H](C)O", "note": "[CAP-11V1] (H-GLRKKFRKTRKRIQKLGRKIGKTGRKVWKAWREY-OH)", "values": [{"measurement": "MIC", "setting": "[1]", "value": ">32", "unit": "µg/mL"}, {"measurement": "MIC", "setting": "[3]; S. aureus 25923", "value": 32, "unit": "µg/mL"}, {"measurement": "MIC", "setting": "[3]; S. aureus 29213", "value": 32, "unit": "µg/mL"}, {"measurement": "RBC lysis (in words)", "setting": "[4]", "value": "decreased RBC lysis; also recorded: did not result in increased lysis of human RBCs"}]}
{"compound": "CC[C@H](C)[C@H](NC(=O)[C@H](CCCCN)NC(=O)[C@H](CCC(=O)O)NC(=O)[C@H](CCCCN)NC(=O)[C@H](CO)NC(=O)[C@H](CCCCN)NC(=O)[C@H](CCCNC(=N)N)NC(=O)[C@H](Cc1ccccc1)NC(=O)[C@H](Cc1ccccc1)NC(=O)[C@H](C)NC(=O)CNC(=O)[C@H](CC(C)C)NC(=O)[C@@H](N)CC(C)C)C(=O)NCC(=O)N[C@@H](CCCCN)C(=O)N[C@@H](C)C(=O)N[C@@H](Cc1ccccc1)C(=O)N[C@@H](CCCCN)C(=O)N[C@@H](CCCNC(=N)N)C(=O)N[C@H](C(=O)N[C@H](C(=O)N[C@@H](CCC(N)=O)C(=O)N[C@@H](CCCNC(=N)N)C(=O)N[C@H](C(=O)N[C@@H](CCCCN)C(=O)N[C@@H](CC(=O)O)C(=O)N[C@@H](Cc1ccccc1)C(=O)N[C@@H](CC(C)C)C(=O)N[C@@H](CCCNC(=N)N)C(=O)O)[C@@H](C)CC)C(C)C)[C@@H](C)CC", "note": "[LL-29V2] (H-LLGAFFRKSKEKIGKAFKRIVQRIKDFLR-OH)", "values": [{"measurement": "RBC lysis (in words)", "setting": "[4]", "value": "slightly increased RBC lysis"}]}
{"compound": "CC[C@H](C)[C@H](NC(=O)[C@H](CCCCN)NC(=O)[C@H](C)NC(=O)[C@H](CCCCN)NC(=O)[C@H](CO)NC(=O)[C@H](CCCCN)NC(=O)[C@H](CCCNC(=N)N)NC(=O)[C@H](Cc1ccccc1)NC(=O)[C@H](Cc1ccccc1)NC(=O)[C@H](C)NC(=O)CNC(=O)[C@H](CC(C)C)NC(=O)[C@@H](N)CC(C)C)C(=O)NCC(=O)N[C@@H](CCCCN)C(=O)N[C@@H](C)C(=O)N[C@@H](Cc1ccccc1)C(=O)N[C@@H](CCCCN)C(=O)N[C@@H](CCCNC(=N)N)C(=O)N[C@H](C(=O)N[C@H](C(=O)N[C@@H](CCC(N)=O)C(=O)N[C@@H](CCCNC(=N)N)C(=O)N[C@H](C(=O)N[C@@H](CCCCN)C(=O)N[C@@H](C)C(=O)N[C@@H](Cc1ccccc1)C(=O)N[C@@H](CC(C)C)C(=O)N[C@@H](CCCNC(=N)N)C(=O)O)[C@@H](C)CC)C(C)C)[C@@H](C)CC", "note": "[LL-29V] (H-LLGAFFRKSKAKIGKAFKRIVQRIKAFLR-OH)", "values": [{"measurement": "RBC lysis (in words)", "setting": "[4]", "value": "comparable levels of RBC lysis as LL-29"}]}
{"compound": "CC[C@H](C)[C@H](NC(=O)[C@H](CCCCN)NC(=O)[C@H](CCC(=O)O)NC(=O)[C@H](CCCCN)NC(=O)[C@H](CO)NC(=O)[C@H](CCCCN)NC(=O)[C@H](CCCNC(=N)N)NC(=O)[C@H](Cc1ccccc1)NC(=O)[C@H](Cc1ccccc1)NC(=O)[C@H](CC(=O)O)NC(=O)CNC(=O)[C@H](CC(C)C)NC(=O)[C@@H](N)CC(C)C)C(=O)NCC(=O)N[C@@H](CCCCN)C(=O)N[C@@H](CCC(=O)O)C(=O)N[C@@H](Cc1ccccc1)C(=O)N[C@@H](CCCCN)C(=O)N[C@@H](CCCNC(=N)N)C(=O)N[C@H](C(=O)N[C@H](C(=O)N[C@@H](CCC(N)=O)C(=O)N[C@@H](CCCNC(=N)N)C(=O)N[C@H](C(=O)N[C@@H](CCCCN)C(=O)N[C@@H](CC(=O)O)C(=O)N[C@@H](Cc1ccccc1)C(=O)N[C@@H](CC(C)C)C(=O)N[C@@H](CCCNC(=N)N)C(=O)O)[C@@H](C)CC)C(C)C)[C@@H](C)CC", "note": "[LL-29] (H-LLGDFFRKSKEKIGKEFKRIVQRIKDFLR-OH)", "values": [{"measurement": "RBC lysis (in words)", "setting": "[4]", "value": "reduced in RBC lysis; also recorded: did not result in increased lysis of human RBCs"}]}
{"compound": "CC[C@H](C)[C@H](NC(=O)[C@H](CCCCN)NC(=O)[C@H](CCC(=O)O)NC(=O)[C@H](CCCCN)NC(=O)[C@H](CO)NC(=O)[C@H](CCCCN)NC(=O)[C@H](CCCNC(=N)N)NC(=O)[C@H](Cc1ccccc1)NC(=O)[C@H](Cc1ccccc1)NC(=O)[C@H](CC(=O)O)NC(=O)CNC(=O)[C@H](CC(C)C)NC(=O)[C@@H](N)CC(C)C)C(=O)NCC(=O)N[C@@H](CCCCN)C(=O)N[C@@H](CCC(=O)O)C(=O)N[C@@H](Cc1ccccc1)C(=O)N[C@@H](CCCCN)C(=O)N[C@@H](CCCNC(=N)N)C(=O)N[C@H](C(=O)N[C@H](C(=O)N[C@@H](CCC(N)=O)C(=O)N[C@@H](CCCNC(=N)N)C(=O)N[C@H](C(=O)N[C@@H](CCCCN)C(=O)N[C@@H](CC(=O)O)C(=O)N[C@@H](Cc1ccccc1)C(=O)N[C@@H](CC(C)C)C(=O)N[C@@H](CCCNC(=N)N)C(=O)N[C@@H](CC(N)=O)C(=O)N[C@@H](CC(C)C)C(=O)N[C@H](C(=O)N1CCC[C@H]1C(=O)N[C@@H](CCCNC(=N)N)C(=O)N[C@H](C(=O)N[C@@H](CCC(=O)O)C(=O)N[C@@H](CO)C(=O)O)[C@@H](C)O)C(C)C)[C@@H](C)CC)C(C)C)[C@@H](C)CC", "note": "[LL-37]", "values": [{"measurement": "RBC lysis (in words)", "setting": "[4]", "value": "RBC lysis in a concentration-dependent manner"}]}
{"compound": "BMAP-34: SEQ ID NO: 7, cow cathelicidin, GLFRRLRDSIRRGQQKILEKARRIGERIKDIFRG (listed as Bos taurus)", "values": [{"measurement": "enhancement of TLR3 signaling / IL-6 production (in words)", "setting": "[5]", "value": "more similar to CRAMP"}]}
{"compound": "GLRKKFRETRKEIQKLGEKIGKTGRKVWKDWREYGQIPYPCRI [CAP-11V3]", "values": [{"measurement": "MIC", "setting": "[1]", "value": ">32", "unit": "µg/mL"}, {"measurement": "MIC", "setting": "[3]; S. aureus 25923", "value": ">32", "unit": "µg/mL"}, {"measurement": "MIC", "setting": "[3]; S. aureus 29213", "value": ">32", "unit": "µg/mL"}]}
{"compound": "GLRKKFRETRKEIQKLGRKIGKTGRKVWKAWREYGQIPYPCRI [CAP-11V2]", "values": [{"measurement": "MIC", "setting": "[1]", "value": ">32", "unit": "µg/mL"}, {"measurement": "MIC", "setting": "[3]; S. aureus 25923", "value": ">32", "unit": "µg/mL"}, {"measurement": "MIC", "setting": "[3]; S. aureus 29213", "value": ">32", "unit": "µg/mL"}]}
{"compound": "GLRKKFRKTRKRIQKLGRKIGKTGRKVWKAWREYGQIPYPCRI [CAP-11]", "values": [{"measurement": "MIC", "setting": "[1]", "value": ">32", "unit": "µg/mL"}, {"measurement": "MIC", "setting": "[3]; S. aureus 25923", "value": 32, "unit": "µg/mL"}, {"measurement": "MIC", "setting": "[3]; S. aureus 29213", "value": 32, "unit": "µg/mL"}, {"measurement": "enhancement of TLR3 signaling / IL-6 production (in words)", "setting": "[5]", "value": "retained reduced levels of activation of TLR3 in comparison to LL-37; also recorded: retain partial enhancement of TLR3 signaling"}, {"measurement": "antibacterial / bacteriocidal activity (in words)", "setting": "[2]", "value": "most potent antibacterial activities; also recorded: most effective"}, {"measurement": "number of the 19 Gram-negative strains inhibited", "setting": "[2]", "value": 16, "unit": "strains"}]}
{"compound": "PMAP-37: SEQ ID NO: 8, pig cathelicidin, GLLSRLRDFLSDRGRRLGEKIERIGQKIKDLSEFFQS (listed as Sus scrofa)", "values": [{"measurement": "enhancement of TLR3 signaling / IL-6 production (in words)", "setting": "[5]", "value": "more similar to CRAMP"}]}
{"compound": "RL-37: SEQ ID NO: 2, Rhesus monkey cathelicidin, RLGNFFRKVKEKIGGGLKKVGQKIKDFLGNLVPRTAS (listed as Macaca mulatta)", "values": [{"measurement": "enhancement of TLR3 signaling / IL-6 production (in words)", "setting": "[5]", "value": "retain partial enhancement of TLR3 signaling"}]}
{"compound": "eCATH-3: SEQ ID NO: 9, horse cathelicidin, KRFHSVGSLIQRHQQMIRDKSEATRHGIRIITRPKLLLAS (listed as Equus caballus)", "values": [{"measurement": "enhancement of TLR3 signaling / IL-6 production (in words)", "setting": "[5]", "value": "more similar to CRAMP"}, {"measurement": "antibacterial / bacteriocidal activity (in words)", "setting": "[2]", "value": "least effective"}, {"measurement": "number of the 19 Gram-negative strains inhibited", "setting": "[2]", "value": "did not inhibit the growth of any"}]}
